Patent EP4122461A1 (priority 2021, dated 2023)

How the values were obtained:
[1] = test system: SARS-2-S-driven cell entry; assay type: cell-based, SARS-CoV-2
[2] = test system: SARS-CoV-2 isolate hCoV-19/Germany/FI1103201/2020; assay type: cell-based; settings: PCLS from a single donor; Fig. 1C
[3] = across a 100-fold dose range; cohort of healthy subjects; cited from earlier work
[4] = blood and urine; cited from earlier work
[5] = in vivo; cited from earlier work

Structure (SMILES)	IC50 [1]	inhibitory effects in human PCLS [2]	tolerability [3]	stability of ester and amide groups [4]	plasma distribution and elimination [5]	SARS-CoV-2 cell entry is inhibited [1]
CN(C)C(=O)COC(=O)Cc1ccc(OC(=O)c2ccc(NC(=N)N)cc2)cc1 [Camostat, camostat]	151 nM	comparable				
N=C(N)c1ccc2cc(OC(=O)c3ccc(N=C(N)N)cc3)ccc2c1 [Nafamostat, nafamostat]	11.8 nM					
COC(=O)[C@H](Cc1cccc(C(=N)N)c1)[C@@H](C)NC(=O)c1ccc(-c2cc[n+]([O-])cc2)cc1 [Otamixaban, otamixaban]	18700 nM	comparable	well tolerated	stable	rapid plasma distribution and elimination	36%
